Test results as given in patent US9458102B2 (priority 2011, dated 2016).

Legend:
[1] = system: heteromeric rod CNG channels consisting of CNGA1 and CNGB1 subunits; assay: CNG channel block at subsaturating cGMP (state dependence of block); format: cell-based; conditions: subsaturating cGMP (50 or 100 μM), +50 mV, normalized to KD at 2 mM cGMP
From the text: KD values at saturating cGMP were corrected for ion accumulation. Solid lines indicate simulations for exclusive closed channel blockers, using KD/KDsat=(1−Fsat)/(1−FsatI/Imax), where Fsat is the estimated fraction of open heteromeric rod channels in saturating cGMP assuming Fsat=0.3 (a), 0.56 (b), or 0.78 (c). The dotted line is a simulation for a blocker with no preference for state, or KD/KDsat=1. The dashed line is a simulation for an exclusive open channel blocker, using KD/KDsat=(I/Imax)^−1.
The solid lines in FIG. 4 marked a, b, and c represent the expected relationship between KD and the fraction of closed channels for an exclusive closed channel blocker. Each of a, b, and c uses one estimate for the probability of closed heteromeric retinal rod channels at saturating cGMP. The simulations are described in the following references: Matthews G et al, J Physiol 403, 389-405 (1988); Taylor W R & Baylor D A, J Physiol 483 567-582 (1995); and Bucossi G et al, Biophys J 72, 1165-1181 (1997), all of which are incorporated by reference herein. The dotted line represents a simulation of a blocker with no preference as to conformational of the channel. The dashed line represents a simulation for an exclusive open channel blocker.
Recordings from inside-out excised patches were made 3-7 days after oocyte injection on an Axopatch 1D® amplifier (Axon Instruments, Foster City, Calif.). Briefly, oocyte vitelline membranes were removed in solution containing 200 mM K aspartate, 20 mM KCl, 1 mM MgCl2, 10 mM EGTA, 10 mM HEPES, pH 7.4. Oocytes were placed in a recording chamber in a solution containing 130 mM NaCl, 2 mM HEPES, 0.02 mM EDTA, 1 mM EGTA, pH 7.6, and borosilicate glass electrodes (1-3 MΩ) were filled with identical solution. Macroscopic currents were filtered at 1 kHz and sampled at 2 kHz using pCLAMP 8.0® software (Axon Instruments). Channels were either fully activated with 2 mM or partially activated with 50 and 100 μM cGMP. […] Glass syringes and Teflon tubing were used to minimize the binding of compounds to surfaces; concentrations passing through the perfusion system were verified by absorbance. Current traces were digitally filtered at 300 Hz (Gaussian) and averaged using Clampfit 8.2® software. Currents in the absence of cGMP were subtracted from all currents analyzed. KD values were determined and expressed as the mean±SD.

[2] = molecular target: T1, Butyrylcholinesterase purified from human blood serum (Homo sapiens, UniProt P06276); assay: In vitro hydrolysis by serum cholinesterase (butyrylcholinesterase); format: in vitro ADME; conditions: for hydrolysis product after incubation with butyrylcholinesterase: 24-hour incubation
T1 construct: Butyrylcholinesterase purified from human blood serum; purchased Sigma; host or cells: purified from human blood serum
T1 sequence (P06276 29-602): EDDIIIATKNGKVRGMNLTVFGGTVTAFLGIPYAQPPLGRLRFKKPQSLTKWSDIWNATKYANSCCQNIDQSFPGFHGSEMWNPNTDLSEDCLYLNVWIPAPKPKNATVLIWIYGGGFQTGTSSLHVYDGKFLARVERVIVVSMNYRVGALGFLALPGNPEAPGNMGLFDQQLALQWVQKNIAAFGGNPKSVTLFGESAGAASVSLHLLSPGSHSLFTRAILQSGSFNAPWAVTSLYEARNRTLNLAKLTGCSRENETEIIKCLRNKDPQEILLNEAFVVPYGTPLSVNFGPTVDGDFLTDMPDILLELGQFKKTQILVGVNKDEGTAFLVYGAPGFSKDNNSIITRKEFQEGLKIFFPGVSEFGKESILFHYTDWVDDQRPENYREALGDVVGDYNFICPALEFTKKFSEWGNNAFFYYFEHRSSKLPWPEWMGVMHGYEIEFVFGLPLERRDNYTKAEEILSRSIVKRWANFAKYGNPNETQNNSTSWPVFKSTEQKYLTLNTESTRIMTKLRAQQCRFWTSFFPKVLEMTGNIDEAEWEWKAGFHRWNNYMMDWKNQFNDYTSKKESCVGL
Description: Compound 1 is rapidly hydrolyzed by butyrylcholinesterase in the bloodstream. Butyrylcholinesterase purified from human blood serum was used to test the resistance of the disclosed compounds to hydrolysis.
All enzymatic assays were performed with 50 μM compound in 0.1M phosphate buffer, pH 7.4, at 37° C. with stirring, unless otherwise noted. Butyrylcholinesterase stock solutions from human serum (Sigma, St. Louis, Mo.) were prepared at 100 U/mL in 0.1 M phosphate buffer, pH 7.4, and stored at −20° C. until use. Hydrolysis was monitored on an 8452A diode array spectrophotometer (Hewlett-Packard). Product peak wavelength absorption was immediately monitored upon addition of compound. Absorbances for complete hydrolysis were determined when there were no further detectable changes. […] All hydrolysis assays were performed in triplicate, and final rate constants are expressed as the mean±SD of the three individually determined rate constants. In some experiments with compound 1, samples were taken at the beginning and end of the assay to verify the hydrolysis product and the completion of the reaction by HPLC. These samples were compared to compounds 1 and 3 on a C18 column eluted with 0.1% TFA in water/acetonitrile. Activity of chymotrypsin (bovine, Worthington Biochemical Co., 190 μg/mL) was verified with 90 μM 4-nitrophenyl acetate in 0.1 M HEPES solution, pH 6.5, at 37° C. with stirring. Hydrolysis product was monitored at 404 nm for 10 min. Activity of proteinase K (from Engyodontium album, Sigma, 165 μg/mL) was verified with 16.5 mg/mL bovine serum albumin in 0.1 M phosphate buffer, pH 7.4, at 37° C. Samples were taken at time point increments up to 2 hours when the reaction reached completion. Samples were analyzed with 12% SDS-PAGE, stained with 0.1% Coomassie Blue.

Row | SMILES | state dependence of block (KD vs fraction of closed channels) [1] | Hydrolysis rate ([2]; 50 μM compound, 0.1M phosphate buffer pH 7.4, 37° C., mean±SD of triplicate) | hydrolysis product after incubation with butyrylcholinesterase [2]
1 | CCCCCCCCNc1ccc(C(=O)OCCN(C)C)cc1 [Compound 5, 2-(Dimethylamino)ethyl 4-(Octylamino)benzoate, reference compound] | better fit the results expected of a closed channel blocker | 213 ± 31 nmol/min/mg | –
2 | CCCCNc1ccc(C(=S)NCCN(C)C)cc1 [Compound 8, 4-(Butylamino)-N-(2-(dimethylamino)ethyl)benzothioamide] | better fit the results expected of a closed channel blocker | – | no hydrolysis product was detected
3 | CCCCCCCCNc1ccc(C(=S)NCCN(C)C)cc1 [Compound 9, 4-(Octylamino)-N-(2-(dimethylamino)ethyl)benzothioamide] | better fit the results expected of a closed channel blocker | – | no hydrolysis product was detected
